This is an account of results in PubChem BioAssay (NCI).

Some test systems named below: SNB-75 CNS; SK-MEL-2 melanoma; OVCAR-8 ovarian; MALME-3M melanoma; SK-OV-3 ovarian; IGROV1 ovarian; KM12 colon; ACHN renal; M14 melanoma.
Holding throughout (test): NCI-60 cell line screen, 48 h

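Each compound was tested at five concentrations against cells in 96-well plates for 48 hours. GI50 is the concentration that inhibits growth by half. TGI is the concentration that stops growth completely.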 A value given as a limit tells only on which side of the number the result lay.

As for `Cc1ccc(C2C(Cl)C(=O)N2NC(=O)c2ccc(N)cc2)cc1` (configuration not stated), the TGI in the test with SNB-75 CNS is greater than 100 µM; in the test with SK-MEL-2 melanoma, 19.8 µM; with OVCAR-8 ovarian it was 38.8 µM; in the test on MALME-3M melanoma, 32.1 µM; in the test with SK-OV-3 ovarian, 37.4 µM; in the test on IGROV1 ovarian, 25.2 µM. Also, the results for the TGI with KM12 colon, with ACHN renal and in the test with M14 melanoma were greater than 100 µM, greater than 100 µM and 36.6 µM, respectively.
For `O=C1C=C(Nc2ccc(S(=O)(=O)Nc3ncccn3)cc2)c2ccccc2C1=O`, the TGI in the test with SNB-75 CNS was determined as 59.4 µM; with SK-MEL-2 melanoma, 85.2 µM; in the test on OVCAR-8 ovarian, 42.4 µM; in the test with MALME-3M melanoma, 43.9 µM; in the test with SK-OV-3 ovarian, 90.7 µM; in the test on IGROV1 ovarian it was 58 µM. Besides, the TGI in the test with KM12 colon came to 38.6 µM; in the test with ACHN renal, 70.4 µM; with M14 melanoma it was 34.1 µM.
On to `CCC[CH2][Sn]([CH2]CCC)([O]C(=O)c1cccc(F)c1F)[O]C(=O)c1cccc(F)c1F`, for which the GI50 in the test with SNB-75 CNS is 0.874 µM; with SK-MEL-2 melanoma, 0.41 µM; in the test on OVCAR-8 ovarian it was 1.3 µM; with MALME-3M melanoma, 0.585 µM; in the test on SK-OV-3 ovarian it was 2.41 µM; in the test with IGROV1 ovarian, 1.4 µM. The GI50 in the test on KM12 colon is 1.52 µM; with ACHN renal, 1.28 µM; in the test on M14 melanoma, 1.4 µM. For the same compound, the TGI in the test on SNB-75 CNS came to 2.1 µM; in the test with SK-MEL-2 melanoma, 1.46 µM; in the test on OVCAR-8 ovarian, 2.57 µM; with MALME-3M melanoma it was 1.89 µM; in the test on SK-OV-3 ovarian, 4.49 µM; in the test on IGROV1 ovarian, 2.76 µM. The TGI in the test on KM12 colon was found to be 2.85 µM; with ACHN renal it was 2.55 µM; in the test with M14 melanoma, 2.77 µM.
For `O=C([CH-]C(=O)c1ccccc1)c1ccccc1.O=C([CH-]C(=O)c1ccccc1)c1ccccc1.O=C([CH-]C(=O)c1ccccc1)c1ccccc1.[Cl-].[Zr+4]`, the GI50 in the test on SNB-75 CNS is 3.34 µM; with SK-MEL-2 melanoma it was 10 µM; with MALME-3M melanoma, 19.5 µM; with SK-OV-3 ovarian, 37.8 µM; in the test with IGROV1 ovarian, 34.3 µM; in the test on KM12 colon it was 12.4 µM. The GI50 in the test on ACHN renal was 22 µM; with M14 melanoma, 12.6 µM. Besides, the TGI in the test with SNB-75 CNS was 30.1 µM; in the test on SK-MEL-2 melanoma it was 41.2 µM; with MALME-3M melanoma, 60.4 µM; in the test with SK-OV-3 ovarian, 74.5 µM; with IGROV1 ovarian it was greater than 100 µM; in the test with KM12 colon, 56.6 µM. For the same compound, the TGI is greater than 100 µM in the test with ACHN renal and 39 µM with M14 melanoma.
In the case of `C1CC2=C(C1)C1=S(S2)SC2=C1CCC2`, the TGI in the test with SNB-75 CNS, in the test on SK-MEL-2 melanoma, in the test with OVCAR-8 ovarian, with MALME-3M melanoma, in the test with SK-OV-3 ovarian and in the test on IGROV1 ovarian was greater than 100 µM each time. In addition, the TGI in the test on KM12 colon, in the test with ACHN renal and in the test with M14 melanoma was greater than 100 µM in each case.
For `O=C(N/C(=C/c1cccc([N+](=O)[O-])c1)c1nc2ccc(Cl)cc2[nH]1)c1ccccc1`, the TGI in the test with SNB-75 CNS is 68.3 µM; with SK-MEL-2 melanoma, 50.3 µM; in the test with OVCAR-8 ovarian it was 30.6 µM; with MALME-3M melanoma it was 36.4 µM; in the test on SK-OV-3 ovarian, 86.6 µM; with IGROV1 ovarian it was 27 µM. Moreover, the values for the TGI in the test with KM12 colon, with ACHN renal and in the test on M14 melanoma were 31.1 µM, 48.9 µM and greater than 100 µM, respectively.
Take `CCC(C)(O)c1cn(-c2ccc(S(=O)(=O)O)cc2)nn1` (configuration not stated): the TGI in the test on SNB-75 CNS, with SK-MEL-2 melanoma, in the test on OVCAR-8 ovarian, in the test on MALME-3M melanoma, in the test with SK-OV-3 ovarian and with IGROV1 ovarian was greater than 100 µM throughout. Further, the TGI in the test with KM12 colon, in the test with ACHN renal and in the test on M14 melanoma was greater than 100 µM each time.
Regarding `COc1ccc(-c2nc(N)c(C#N)c3c2CCOc2c-3ccc3ccccc23)cc1`, the GI50 is greater than 100 µM with SNB-75 CNS; 36.8 µM with SK-MEL-2 melanoma; 23.3 µM with OVCAR-8 ovarian; 15.2 µM with MALME-3M melanoma; 17.4 µM with SK-OV-3 ovarian; 42.7 µM in the test with KM12 colon. Besides, the GI50 in the test with ACHN renal is 10.1 µM; in the test with M14 melanoma, 66.6 µM. The TGI in the test on SNB-75 CNS is greater than 100 µM; in the test on SK-MEL-2 melanoma, greater than 100 µM; in the test with OVCAR-8 ovarian it was 58 µM; in the test with MALME-3M melanoma, 50.1 µM; in the test with SK-OV-3 ovarian, 55 µM; with KM12 colon, greater than 100 µM. Besides, the figures for the TGI in the test on ACHN renal and in the test with M14 melanoma were 22.6 µM and greater than 100 µM, respectively.
As for `CCN(CC)c1ccc(N=Nc2ccc(-c3nc4cccn(C)c-4n3)cc2)cc1`, the TGI in the test with SNB-75 CNS worked out at 38.9 µM; with SK-MEL-2 melanoma, 35.3 µM; in the test on OVCAR-8 ovarian, 24 µM; in the test with MALME-3M melanoma, 26.8 µM; with SK-OV-3 ovarian, 43.5 µM; with IGROV1 ovarian, 25 µM. Besides, the TGI was found to be 24.9 µM in the test with KM12 colon and 24.4 µM in the test with M14 melanoma.
In the case of `COC(=O)N/N=C(\C)C(CN(C)C)C(c1ccccc1)c1c(O)c2ccccc2oc1=O` (configuration not stated), the TGI with SNB-75 CNS, in the test on SK-MEL-2 melanoma, in the test with OVCAR-8 ovarian, in the test on MALME-3M melanoma, in the test with SK-OV-3 ovarian and in the test on IGROV1 ovarian was greater than 100 µM throughout. Besides, the TGI in the test on KM12 colon, with ACHN renal and in the test with M14 melanoma was greater than 100 µM throughout.
Take `Cc1ccccc1N=Nc1c(-c2ccccc2)nn(C(=O)CC(=O)Nc2cccc(Cl)c2)c1-c1ccccc1`: the TGI in the test with SNB-75 CNS was greater than 31.6 µM; in the test on SK-MEL-2 melanoma it was 26 µM; with OVCAR-8 ovarian it was greater than 31.6 µM; in the test on MALME-3M melanoma, greater than 100 µM; in the test on SK-OV-3 ovarian it was greater than 31.6 µM; in the test with IGROV1 ovarian it was greater than 31.6 µM. Also, the TGI with ACHN renal and in the test with M14 melanoma was greater than 31.6 µM in each case.
Regarding `CCCCCCCCCCOC(=O)c1cc[n+](C)cc1`, the TGI with SNB-75 CNS is 34.3 µM; in the test with SK-MEL-2 melanoma it was 49.1 µM; with OVCAR-8 ovarian, 31.4 µM; with MALME-3M melanoma, 30.7 µM; in the test on SK-OV-3 ovarian it was 29.6 µM; in the test with IGROV1 ovarian it was 30.4 µM. The results for the TGI with KM12 colon, in the test on ACHN renal and in the test with M14 melanoma were 31.3 µM, 33.2 µM and 32.2 µM, respectively.
Take `O/N=C\C(=Nc1ccc(Cc2ccc(N=C(/C=N\O)NO)cc2)cc1)NO`: the TGI in the test with SK-MEL-2 melanoma, in the test with OVCAR-8 ovarian, with MALME-3M melanoma, in the test on SK-OV-3 ovarian, with IGROV1 ovarian and in the test with KM12 colon was greater than 100 µM each time. For the same compound, the TGI with ACHN renal and in the test on M14 melanoma was greater than 100 µM throughout.
